Measured values: patent US10093627B2, “Tetrahydroquinoline derivatives and their use as Epac inhibitors” (Institut National de la Sante et de la Recherche Medicale …, priority 2012, dated 2018)

How the values were obtained:
Epac2(AB) = molecular target: T1, Epac2(AB) (Homo sapiens, UniProt Q8WZA2); experiment: In vitro GEF activity (initial velocity of GDP exchange on Rap1A) of Epac2(AB); format: biochemical; details: 50 μM racemic CE3F4; agonist 50 μM 007 or 300 μM cAMP; FIG. 6A
T1 construct: Human Epac2(AB) (amino acids 43-1011) carries both the CNB-A and the CNB-B domains; made in house; host or cells: Escherichia coli Rosetta 2(DE3)
T1 sequence (Q8WZA2 43-1011): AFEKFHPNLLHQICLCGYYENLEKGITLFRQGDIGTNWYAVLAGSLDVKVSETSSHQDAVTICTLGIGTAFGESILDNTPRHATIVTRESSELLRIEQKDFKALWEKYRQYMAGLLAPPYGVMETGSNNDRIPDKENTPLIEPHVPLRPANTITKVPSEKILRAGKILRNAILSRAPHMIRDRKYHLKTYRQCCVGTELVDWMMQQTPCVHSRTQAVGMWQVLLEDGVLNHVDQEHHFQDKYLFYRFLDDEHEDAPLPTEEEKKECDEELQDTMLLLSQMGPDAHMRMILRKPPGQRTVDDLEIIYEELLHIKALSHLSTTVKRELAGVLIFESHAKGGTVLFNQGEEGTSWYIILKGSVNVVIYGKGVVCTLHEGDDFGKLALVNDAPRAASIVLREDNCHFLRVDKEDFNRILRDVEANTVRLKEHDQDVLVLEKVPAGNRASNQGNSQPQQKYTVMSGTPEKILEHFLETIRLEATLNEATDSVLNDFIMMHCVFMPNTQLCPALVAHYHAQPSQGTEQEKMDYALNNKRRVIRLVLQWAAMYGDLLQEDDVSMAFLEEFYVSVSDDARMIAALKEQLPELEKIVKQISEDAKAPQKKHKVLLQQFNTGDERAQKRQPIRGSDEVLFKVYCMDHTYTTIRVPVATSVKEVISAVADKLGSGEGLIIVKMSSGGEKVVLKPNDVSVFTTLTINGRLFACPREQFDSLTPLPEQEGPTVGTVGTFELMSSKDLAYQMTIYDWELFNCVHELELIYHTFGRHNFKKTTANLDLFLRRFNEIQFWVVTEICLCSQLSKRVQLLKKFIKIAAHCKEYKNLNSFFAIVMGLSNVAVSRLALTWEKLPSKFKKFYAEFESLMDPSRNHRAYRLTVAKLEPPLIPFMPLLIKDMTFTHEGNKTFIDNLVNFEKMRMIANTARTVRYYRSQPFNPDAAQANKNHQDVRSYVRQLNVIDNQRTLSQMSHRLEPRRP
Excerpt: Human Epac2(AB) (amino acids 43-1011) carries both the CNB-A and the CNB-B domains. Human Epac2(B) (amino acids 283-1011) lacks the first 283 amino acids of Epac2. It is therefore deleted of its CNB-A and DEP domains, but retains the CNB-B domain and the full catalytic region. Epac2(AB) was obtained by HindIII/NotI restriction and Epac2(B) was obtained by Ssp1/Not1 restriction of a human Epac2A cDNA (a gift from Ann M Graybiel, Department of Brain and Cognitive Sciences, MIT, Cambridge). Both cDNA fragments were inserted into pET41a (Novagen), expressed in Escherichia coli Rosetta 2(DE3) (Novagen), and the GST-tagged fusion proteins were purified by nickel-nitrilotriacetic acid beads (Qiagen), as described in D. Courilleau, et al., Identification of a tetrahydroquinoline analog as a pharmacological inhibitor of the cAMP-binding protein Epac, J. Biol. Chem. 287 (2012) 44192-44202).
In vitro GDP exchange catalyzed by Epac was measured using purified recombinant Epac isoforms and Rap1A loaded with Bodipy-GDP, as described in D. Courilleau, et al (above mentioned). […] The release of Bodipy-GDP was measured in real time as the decay of fluorescence. […] The initial velocity (Vi) of GDP exchange on Rap1 was calculated as described in D. Courilleau et al.).
Data are expressed as mean±S.D. Differences in quantitative variables were examined by unpaired one- or two-tailed Student's t test. […]

[1] = system: Epac1-induced H-Ras activation in HEK293 cells; experiment: Epac1-induced H-Ras activation, H-Ras-GTP pull-down in HEK293 cells; format: cell-based
Experimental: The effects of CE3F4 to prevent Epac1-induced H-Ras activation was determined by extraction of GTP-loaded H-Ras from cell lysates with the immobilized Ras-binding domain of Raf1.
HEK293 cells (FIG. 3A) or rat neonatal cardiac myocytes (FIG. 3B) were transfected with Epac1. 24 h after transfection, cells were preincubated or not with CE3F4 for 30 min and were then treated or not with Sp-007 (10 μM) for 10 min. In FIG. 3C, HEK293 cells overexpressing β1-AR and transfected with Epac1 were pretreated or not with 20 μM of CE3F4 for 30 min and stimulated or not with Iso for 10 min. Amounts of H-Ras-GTP were determined by pull-down assays. The bar graph represents the mean±S.E.M. of 5 (FIG. 3A) or 2 (FIG. 3B, 3C) independent experiments. Results are expressed as the percentage of unstimulated control cells.
Ras and Rap1 pull-down experiments were performed using a GST fusion protein containing respectively the Ras binding domain of Raf1-RBD and the Rap1 binding domain of Ral-GDS as previously described (Métrich et al., 2008). Cells were starved for 1 h before stimulation in MEM free with penicillin-streptomycin (1%). […]

Inhibitory effect on GEF activity of Epac2(AB), compared with Epac2(B) (Epac2(AB)): no significant difference
SMILES: CC1CCc2c(cc(Br)c(F)c2Br)N1C=O (racemic) [CE3F4]
Amount of Ras-GTP induced by Iso ([1]; HEK293 overexpressing β1-AR, transfected with Epac1, CE3F4 20 μM, 30 min, Iso 10 min, FIG. 3C): decreased | Amount of Ras-GTP induced by Sp-007 ([1]; HEK293 transfected with Epac1, CE3F4 30 min, Sp-007 10 μM, 10 min, FIG. 3A): decreased
